In US20050272036A1, “Ketones” (priority 2002, published 2005):

System: not given
Test: not given
Settings: not given

melting point [°C] | Compound
100 to 102 | O=C(c1cccnc1)C(Cc1ccc(F)cc1)c1ccccc1 (stereo not drawn) [Example 10, [α-(4-Fluorobenzyl)benzyl]-(pyrid-3-yl)-ketone]
66 to 67 | O=C(CCc1ccc(F)cc1)c1ccc(C(F)(F)F)cc1 [Example 19, (4-Fluorophenethyl)-(4-trifluoromethylphenyl)-ketone]
114 to 115 | Cc1ccc(C(=O)CCc2ccc(N3CCN(c4ccncc4)CC3)cc2)cc1 [Reference Example 55, {4-[1-(Pyrid-4-yl)piperazin-4-yl]phenethyl}-(4-methylphenyl)-ketone]
68 to 69 | COc1ccc(C(=O)Cc2ccccc2)cc1 [Reference Example 5, (4-Methoxyphenyl)-(benzyl)-ketone]
130 to 132 | O=C(Cn1cnc2ccccc21)c1ccc(Cl)cc1Cl [Example 7, (Benzimidazol-1-ylmethyl)-(2,4-dichlorophenyl)-ketone]
101 to 103 | O=C(CS(=O)(=O)c1ccccc1)c1ccccn1 [Example 100, (Phenylsulphonylmethyl)-(pyrid-2-yl)-ketone]
128 to 129 | O=C(Cc1ccc(Cl)cc1)c1ccc(Br)cc1 [Reference Example 3, (4-Bromophenyl)-(4-chlorobenzyl)-ketone]
107 to 111 | Cc1ccc(C(=O)Cc2ccccc2)cc1 [Reference Example 11, (Benzyl)-(4-methylphenyl)-ketone]
125 to 126 | O=C(Cc1ccc(Br)cc1)c1ccc(Cl)cc1 [RE 3, (4-Bromobenzyl)-(4-chlorophenyl)-ketone]
99 to 103 | O=C(Cc1ccc(Cl)c(Cl)c1)c1ccc(Cl)cc1 [Example 4, (4-Chlorophenyl)-(3,4-dichlorophenylmethyl)-ketone]
126 to 128 | O=C(c1ccc(Cl)cc1)C(Cn1cncn1)c1ccc(Cl)cc1 (stereo not drawn) [Reference Example 16, (4-Chlorophenyl)-[α-(1,2,4-triazol-1-ylmethyl)-4-chlorobenzyl]-ketone]
140 to 142 | O=C(c1ccccc1)C(Cc1ccc(Cl)cc1)c1cccnn1 (centres unmarked) [Example 13, [2-(4-Chlorophenyl)-1-(pyridazin-3yl)ethyl]-(phenyl)-ketone]
71 to 72 | Cc1ccc(CC(C(=O)c2ccccc2)N2CCCCC2)cc1 (centres unmarked)

System: Pancreatic islets
Test: not given
Settings: pancreatic islets (Davani B et al. 2000); cited from earlier work

Compound | effects of 11-dehydocorticosterone on insulin release
CC1(C)[C@@H](OC(=O)CCC(=O)O)CC[C@]2(C)[C@H]3C(=O)C=C4[C@@H]5C[C@@](C)(C(=O)O)CC[C@]5(C)CC[C@@]4(C)[C@]3(C)CC[C@@H]12 [carbenoxolone] | can inhibit the effects of 11-dehydocorticosterone on insulin release

Molecular target: T1, human 11βHSD1 enzyme (Homo sapiens, UniProt P28845)
T1 construct: a construct containing full-length human 11βHSD1 enzyme (in pCMVHyg); expressed in transfected cells
Test: HeLa GRE4-βGal/11βHSD1 cell reporter assay (cortisone to cortisol, β-galactosidase readout)
Type: cell-based
Settings: HeLa GRE4-βGal/11βHSD1 cells, cortisone 1 μM, overnight incubation, absorbance at 570 nm
Description: HeLa cells (human cervical carcinoma derived cells) were stably transfected with a construct containing four copies of the glucocorticoid response element (GRE) linked to a beta-galactosidase reporter gene (3 kb lac Z gene derived from pSV-B-galactosidase). These cells were then further stably transfected with a construct containing full-length human 11βHSD1 enzyme (in pCMVHyg) to create GRE4-βGal/11βHSD1 cells. The principal of the assay is as follows. Cortisone is freely taken up by the cells and is converted to cortisol by 11βHSD1 oxo-reductase activity and cortisol (but not cortisone) binds to and activates the glucocorticoid receptor. Activated glucocorticoid receptor then binds to the GRE and initiates transcription and translation of β-galactosidase. Enzyme activity can then be assayed with high sensitivity by colourimetric assay.
Cells were routinely cultured in DMEM (Invitrogen, Paisley, Renfrewshire, UK) containing 10% foetal calf serum (LabTech), 1% glutamine (Invitrogen), 1% penicillin & streptomycin (Invitrogen), 0.5 mg/ml G418 (Invitrogen) & 0.5 mg/ml hygromycin (Boehringer). Assay media was phenol red free-DMEM containing 1% glutamine, 1% penicillin & streptomycin.
Compounds (1 mM) to be tested were dissolved in dimethyl sulphoxide (DMSO) and serially diluted into assay media containing […]. […]
A cocktail (25 μl) consisting of 10× Z-buffer (600 mM Na2HPO4, 400 mM NaH2PO4.2H2O, 100 mM KCl, 10 MM MgSO4.7H2O, 500 mM β-mercaptoethanol, pH 7.0), SDS (0.2%), chlorophenol red-β-D-galactopyranoside (5 mM, Roche Diagnostics) was added per well and plates incubated at 37° C. for 3-4 hours. β-Galactosidase activity was indicated by a yellow to red colour change (absorbance at 570 nm) measured using a Tecan Spectrafluor Ultra.
The calculation of median inhibitory concentration (IC50) values for the inhibitors was performed using Origin 6.0 (Microcal Software, Northampton Mass. USA). Dose response curves for each inhibitor were plotted as OD units at each inhibitor concentration with relation to a maximum signal (cortisone, no compound) and IC50 values calculated. […]

T1 sequence (P28845 whole entry): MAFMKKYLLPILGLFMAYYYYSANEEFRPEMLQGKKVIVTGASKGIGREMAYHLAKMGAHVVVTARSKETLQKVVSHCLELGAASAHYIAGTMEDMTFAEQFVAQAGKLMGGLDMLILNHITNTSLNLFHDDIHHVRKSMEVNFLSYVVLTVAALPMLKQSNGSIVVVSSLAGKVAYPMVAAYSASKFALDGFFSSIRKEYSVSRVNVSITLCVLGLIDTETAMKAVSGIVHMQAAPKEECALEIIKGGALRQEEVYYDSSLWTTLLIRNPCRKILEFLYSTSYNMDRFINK

IC50 [nM] | Compound
93.5 | O=C(CS(=O)(=O)N1CCCC1)c1ccc(F)cc1 [Example 79, (4-Fluorophenyl)-(pyrrolidin-1-ylsulphonylmethyl)-ketone]
76.8 | Cc1ccc(C(=O)Cc2ccsc2)cc1 [Example 3, (Thien-3-ylmethyl)-(4-methylphenyl)-ketone]
153 | CC(=O)Nc1ccc(OCC(=O)c2ccc(Cl)cc2)cc1 [Example 155, (4-Chlorophenyl)-(4-acetylaminophenoxymethyl)-ketone]
